Key:
MDA-MB-231 cells [1] = test: crystal violet assay, cellular viability; format: cell-based, human
Description: (§1) Compound 1 and compound 2 were tested in their efficacy to kill malignant MCF7 cancer cells. Briefly, 10.000 cells per well were seeded in a 96-well plat on one day and the next day selected compounds were added and incubated with the cells for 48 hrs. The cells were then fixed with 4% paraformaldehyde, stained with 0.05% crystal violet, washed with PBS, and solubilized in 1% SDS. The absorbance of the plate at 595 nm was then measured, quantifying the number of viable cells.
(§2) A number of compounds of the present invention were tested for cytotoxicity towards at least some of human breast cancer cell lines (MCF7, MDA-MB-231), human fibroblast (BJ) and murine triple negative breast cancer cell line 4T1 (Table 2).

[2] = tested on: murine triple negative breast cancer cell line 4T1; test: crystal violet assay, cellular viability; format: cell-based; details: Mus musculus, 4T1, 48 hours
Description: as §1, §2

[3] = tested on: non malignant cells (BJ), human fibroblast; test: crystal violet assay, cellular viability; format: cell-based
Description: as §1, §2

BT474 cells = test: AnnexinV/PI cell death assay; format: cell-based; details: 48 hrs
Description: (§3) To confirm such findings by an independent method, cell death-inducing potency (cytotoxic efficacy) of DFO and compound 2 have been tested via annexin V/PI staining commonly used as a measure of apoptotic/necrotic cell death. Briefly, cells were seeded in 12-well plate at 100,000 per well, incubated with the selected compounds for 48 hours, then floating cells were spun, adherent cells trypsinized and spun as well followed by the staining with AnnexinV-FITC and PI probes. Cells were then washed with PBS and measured via Fluorescence Activated Sorter.

BT549 cells = test: AnnexinV/PI cell death assay; format: cell-based; details: 48 hrs
Description: as §3

MCF7 cells [4] = test: cellular proliferation, continuous confluence monitoring via Juli FL; format: cell-based, human; details: for Final confluence: MCF7, 48 hrs
Description: (§4) We also tested the ability of compound 2 to suppress proliferation of cancer cells by an alternative approach via the real time monitoring with a cellular analyser Juli FL. In brief, MCF7 or MDA-MB-231 cells were seeded in a 6-well plate the day before to reach approximately 20% confluence on the following day. Next day, the camera of the instrument was focused on a particular field with approximately 20% confluence and cells were continuously monitored, recording the confluence and visual appearance every 30 minutes for 48 hrs. Values were then expressed either as simple confluence at the end of the experiment or as slope of the line representing the confluence during a given period of time (Table 10). It is clear from the collected data that, in agreement with Xcelligence data, we do see inhibition of proliferation at 1 μM, complete block of proliferation at 2 μM and a cytotoxic effect at 5 μM. The effect is less pronounced in this case as dead cells remain in the monitored field and some are still counted as living cells by the software.

MDA-MB-231 cells [5] = test: as above; format: cell-based, human; details: for Final confluence: MDA-MB-231, 48 hrs
Description: as §4

MCF7 cells [6] = test: cellular migration into scratch, JULI FL; format: cell-based, human
Description: (§5) In order to test the effect of compound 2 on cellular migration, we have seeded MCF7 or MDA-MB-231 cells in 12 well plates, let them reach confluence and then introduced a scratch in the monolayer with a 10 μl pipette tip.

MDA-MB-231 cells [7] = test: cellular migration into scratch, JULI FL; format: cell-based, human
Description: as §5

MCF7 cells [8] = test: individual cell movement, Juli FL and Image J; format: cell-based, human
Description: Additionally, cells seeded identically as in example 26, were treated with 1 to 5 μM concentrations of compound 2 and movie was recorded via the Juli FL system, enabling monitoring of individual movement of cells. The movement was then analyzed by the Image J program to gain the average travelled distance within a specified time. We detected a significant reduction of the total length of travelled trajectory when cells were exposed to compound 2 (Table 12)

[9] = tested on: human triple negative breast cancer cells line MDA-MB-231; test: tumor growth in vivo, MDA-MB-231 model; set-up: species or system NOD-SCID gamma mice; details: for Relative tumor size: MDA-MB-231, 8 mg/kg i.p. twice per week
Description: In order to define the effect of compound 2 on tumor growth and progression in vivo, we tested its effect on the model of human triple negative breast cancer cells line MDA-MB-231, NOD-SCID gamma mice being the immunodeficient host. Mice were injected with 1 million of cells s.c. on the right flank. After appearance of tumors (15-60 mm^3) mice were randomized into three separate group, one receiving corn oil (control) and two compound 2 in a dose of 1 mg/kg or 8 mg/kg. Tumor progression was then monitored by ultrasound imaging Vevo770 and mice received the treatment twice per week, i.p. in approximately 100 ul of corn oil.

CC(=O)N(O)CCCCCNC(=O)CCC(=O)N(O)CCCCCNC(=O)CCC(=O)N(O)CCCCCN(CCCCCCCCCC[P+](c1ccccc1)(c1ccccc1)c1ccccc1)CCCCCCCCCC[P+](c1ccccc1)(c1ccccc1)c1ccccc1.[Cl-].[Cl-] [Compound 2, Triphenyl(3,14,25-trihydroxy-2,10,13,21,24-pentaoxo-31-(10-(triphenylphosphonio)decyl)-3,9,14,20,25,31-hexaazahentetracontan-41-yl)phosphonium chloride]
Selectivity index (IC50 non-malignant/IC50 malignant) (MDA-MB-231 cells [1]; BJ vs MDA-MB-231, 48 hours): 2.64
IC50 (MDA-MB-231 cells [1]; Homo sapiens, MDA-MB-231, 48 h, read-out: IC50 cellular viability): 5.4 µM
IC50 [2]: 2 µM
Selectivity index (IC50 non-malignant/IC50 malignant) ([3]; BJ vs BJ (reference)): 1
IC50 ([3]; Homo sapiens, Fibroblast, BJ non malignant, 48 hours, crystal violet): 14.3 µM
mean percentage of dead cells (AnnexinV/PI) (BT474 cells; BT474, 5 μM): 18.6%
mean percentage of dead cells (AnnexinV/PI) (BT474 cells; BT474, 10 μM): 39.9%
mean percentage of dead cells (AnnexinV/PI) (BT474 cells; BT474, 20 μM): 92.5%
mean percentage of dead cells (AnnexinV/PI) (BT549 cells; BT549, 5 μM): 31.8%
mean percentage of dead cells (AnnexinV/PI) (BT549 cells; BT549, 10 μM): 52.3%
mean percentage of dead cells (AnnexinV/PI) (BT549 cells; BT549, 20 μM): 80.4%
slope of the confluence line (MCF7 cells [4]; MCF7, 0-22 h, 1 μM): 0.655 (0.022)
slope of the confluence line (MCF7 cells [4]; MCF7, 0-22 h, 2 μM): 0.324 (0.016)
slope of the confluence line (MCF7 cells [4]; MCF7, 0-22 h, 5 μM): 0.317 (0.030)
slope of the confluence line (MCF7 cells [4]; MCF7, 22-48 h, 1 μM): 0.510 (0.014)
slope of the confluence line (MCF7 cells [4]; MCF7, 22-48 h, 2 μM): 0.104 (0.007)
slope of the confluence line (MCF7 cells [4]; MCF7, 22-48 h, 5 μM): −0.076 (0.010)
Final confluence (MCF7 cells [4]; 1 μM): 53.15 (4.0)
Final confluence (MCF7 cells [4]; 2 μM): 32.94 (2.5)
Final confluence (MCF7 cells [4]; 5 μM): 26.54 (1.9)
slope of the confluence line (MDA-MB-231 cells [5]; MDA-MB-231, 0-22 h, 1 μM): 0.786 (0.010)
slope of the confluence line (MDA-MB-231 cells [5]; MDA-MB-231, 0-22 h, 2 μM): 0.470 (0.006)
slope of the confluence line (MDA-MB-231 cells [5]; MDA-MB-231, 0-22 h, 5 μM): 0.454 (0.014)
slope of the confluence line (MDA-MB-231 cells [5]; MDA-MB-231, 22-48 h, 1 μM): 0.934 (0.014)
slope of the confluence line (MDA-MB-231 cells [5]; MDA-MB-231, 22-48 h, 2 μM): 0.114 (0.011)
slope of the confluence line (MDA-MB-231 cells [5]; MDA-MB-231, 22-48 h, 5 μM): −0.057 (0.013)
Final confluence (MDA-MB-231 cells [5]; 1 μM): 65.15 (3.3)
Final confluence (MDA-MB-231 cells [5]; 2 μM): 46.58 (2.7)
Final confluence (MDA-MB-231 cells [5]; 5 μM): 25.87 (2.4)
mean percentage of non-invaded portion of the scratch (MCF7 cells [6]; MCF7, 0 h, 1 μM): 100 (4.1) %
mean percentage of non-invaded portion of the scratch (MCF7 cells [6]; MCF7, 0 h, 2 μM): 100 (4.8) %
mean percentage of non-invaded portion of the scratch (MCF7 cells [6]; MCF7, 0 h, 5 μM): 100 (4.4) %
mean percentage of non-invaded portion of the scratch (MCF7 cells [6]; MCF7, 24 h, 1 μM): 78.8 (5.2) %
mean percentage of non-invaded portion of the scratch (MCF7 cells [6]; MCF7, 24 h, 2 μM): 79.2 (1.1) %
mean percentage of non-invaded portion of the scratch (MCF7 cells [6]; MCF7, 24 h, 5 μM): 83.8 (0.6) %
mean percentage of non-invaded portion of the scratch (MCF7 cells [6]; MCF7, 48 h, 1 μM): 61.8 (5.3) %
mean percentage of non-invaded portion of the scratch (MCF7 cells [6]; MCF7, 48 h, 2 μM): 66.1 (1.1) %
mean percentage of non-invaded portion of the scratch (MCF7 cells [6]; MCF7, 48 h, 5 μM): 78.8 (0.6) %
mean percentage of non-invaded portion of the scratch (MDA-MB-231 cells [7]; MDA-MB-231, 0 h, 1 μM): 100 (5.5) %
mean percentage of non-invaded portion of the scratch (MDA-MB-231 cells [7]; MDA-MB-231, 0 h, 2 μM): 100 (7.4) %
mean percentage of non-invaded portion of the scratch (MDA-MB-231 cells [7]; MDA-MB-231, 0 h, 5 μM): 100 (6.5) %
mean percentage of non-invaded portion of the scratch (MDA-MB-231 cells [7]; MDA-MB-231, 24 h, 1 μM): 40.7 (8.9) %
mean percentage of non-invaded portion of the scratch (MDA-MB-231 cells [7]; MDA-MB-231, 24 h, 2 μM): 42.7 (8.0) %
mean percentage of non-invaded portion of the scratch (MDA-MB-231 cells [7]; MDA-MB-231, 24 h, 5 μM): 48.4 (8.9) %
mean percentage of non-invaded portion of the scratch (MDA-MB-231 cells [7]; MDA-MB-231, 48 h, 1 μM, cells started to die at 48 hrs): 61.7 (6.7) %
mean percentage of non-invaded portion of the scratch (MDA-MB-231 cells [7]; MDA-MB-231, 48 h, 2 μM, cells started to die at 48 hrs): 76.2 (13.3) %
mean percentage of non-invaded portion of the scratch (MDA-MB-231 cells [7]; MDA-MB-231, 48 h, 5 μM, cells started to die at 48 hrs): 98.5 (9.1) %
speed of the movement (MCF7 cells [8]; MCF7, 1 μM): 0.16 (0.06) μm*min^−1
travelled distance of an individual cell between frames (MCF7 cells [8]; MCF7, 1 μM): 4.4 (1.4) μm
speed of the movement (MCF7 cells [8]; MCF7, 2 μM): 0.13 (0.05) μm*min^−1
travelled distance of an individual cell between frames (MCF7 cells [8]; MCF7, 2 μM): 3.9 (1.5) μm
speed of the movement (MCF7 cells [8]; MCF7, 5 μM): 0.12 (0.07) μm*min^−1
travelled distance of an individual cell between frames (MCF7 cells [8]; MCF7, 5 μM): 3.1 (0.7) μm
effect on relative tumor growth, in words ([9]; MDA-MB-231, 8 mg/kg): significantly reduces relative tumor growth
Relative tumor size ([9]; Day 0): 1.0
Relative tumor size ([9]; Day 4): 1.3
Relative tumor size ([9]; Day 7): 1.8
Relative tumor size ([9]; Day 11): 2.6
Relative tumor size ([9]; Day 14): 3.5
Relative tumor size ([9]; Day 18): 5.3
Relative tumor size ([9]; Day 21): 7.9

Source: patent US20200078379A1, “DEFEROXAMINE DERIVATIVES AS MEDICAMENTS” (BIOTECHNOLOGICKY USTAV AV CR, V.V.I., priority 2017, published 2020)
